In patent US7696207B2, “Therapeutic agents useful for treating pain” (Purdue Pharma L.P., priority 2002, dated 2010):

What was measured:
[1] = target: T1, human VR1 (Homo sapiens, UniProt Q8NER1); assay: VR1 pH-based assay (FLIPR calcium influx); format: cell-based; details: HEK293-EcR cells induced to express human VR1; activation by agonist buffer pH 5.5; Fluo-4, FLIPR
T1 construct: expressed in transfected cells
Experimental: (§1) Human VR1 cloning. Human spinal cord RNA (commercially available from Clontech, Palo Alto, Calif.) was used. Reverse transcription was conducted on 1.0 μg total RNA using Thermoscript Reverse Transcriptase (commercially available from Invitrogen, Carlsbad, Calif.) and oligo dT primers as detailed in its product description. Reverse transcription reactions were incubated at 55° C. for 1 h, heat-inactivated at 85° C. for 5 min, and RNase H-treated at 37° C. for 20 min.
(§2) Human VR1 cDNA sequence was obtained by comparison of the human genomic sequence, prior to annotation, to the published rat sequence. Intron sequences were removed and flanking exonic sequences were joined to generate the hypothetical human cDNA. Primers flanking the coding region of human VR1 were designed as follows: forward primer, […] (SEO ID NO: 1); and reverse primer, […] (SEO ID NO: 2). […]
(§3) Generation of inducible cell lines. […] On the day of assay, cells were loaded with Fluo-4 (a calcium-sensitive dye that is commercially available from Molecular Probes, Eugene, Oreg.) and CAP-mediated calcium influx was measured using a Fluorometric Imaging Plate Reader (“FLIPR”) (commercially available from Molecular Devices Corp., Sunnyvale, Calif.) as described below. […]

[2] = target: T1, human VR1; assay: VR1 capsaicin-based assay (FLIPR calcium influx); format: cell-based; details: HEK293-EcR cells induced to express human VR1; activation by capsaicin (400 nM); Fluo-4, FLIPR
Experimental: as §1, §2, §3

T1 sequence (Q8NER1 whole entry): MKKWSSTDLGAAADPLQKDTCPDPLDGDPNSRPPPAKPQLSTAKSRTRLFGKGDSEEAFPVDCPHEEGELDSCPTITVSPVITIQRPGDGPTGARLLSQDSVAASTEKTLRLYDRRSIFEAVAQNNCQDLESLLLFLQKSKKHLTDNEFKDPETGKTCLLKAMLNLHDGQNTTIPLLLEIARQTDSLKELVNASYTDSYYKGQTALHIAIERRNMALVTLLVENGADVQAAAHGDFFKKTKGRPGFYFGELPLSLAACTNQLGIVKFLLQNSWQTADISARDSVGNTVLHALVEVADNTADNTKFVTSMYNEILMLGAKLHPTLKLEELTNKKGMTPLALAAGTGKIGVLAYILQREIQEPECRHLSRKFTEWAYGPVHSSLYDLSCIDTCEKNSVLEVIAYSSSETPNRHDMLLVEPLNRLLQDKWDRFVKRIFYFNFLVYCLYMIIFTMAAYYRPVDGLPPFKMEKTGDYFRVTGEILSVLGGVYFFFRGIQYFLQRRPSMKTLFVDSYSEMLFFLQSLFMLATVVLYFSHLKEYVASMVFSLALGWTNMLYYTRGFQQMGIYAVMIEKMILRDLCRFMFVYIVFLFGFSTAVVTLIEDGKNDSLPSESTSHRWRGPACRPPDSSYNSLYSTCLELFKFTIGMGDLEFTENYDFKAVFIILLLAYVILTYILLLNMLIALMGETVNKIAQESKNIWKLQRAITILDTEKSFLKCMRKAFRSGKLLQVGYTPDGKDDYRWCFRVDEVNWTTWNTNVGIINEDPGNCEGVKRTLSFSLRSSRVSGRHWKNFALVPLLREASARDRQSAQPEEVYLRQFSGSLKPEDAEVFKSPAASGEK

IC50 [1]: 221 ± 50.5 nM
IC50 [2]: 47.2 ± 9.9 nM
Structure (SMILES): Cc1ccnnc1N1CCN(C(=O)Nc2ccc(C(C)(C)C)cc2)CC1 [Compound A17, 4-(4-Methyl-pyridazin-3-yl)-piperazine-1-carboxylic acid (4-tert-butyl-phenyl)-amide]
